Measured values taken from US20140179688A1, “PLOD-2 Modulators and Their Use in the Treatment of Skin” (AVON PRODUCTS, INC., priority 2012, published 2014).

Test system: PLOD-2
Assay: PLOD-2 expression by qRT-PCR versus other anti-aging actives (Example 5)
Type: cell-based, Human
Conditions: for induction of a significant level of PLOD-2 in skin cells: concentrations as in Table 5; for Significant Increases in PLOD-2 Expression: 48 hours, fibroblasts, relative to vehicle
Protocol: Normal Human Dermal Fibroblasts were Grown in DMEM (Mediatech; cat. #: 15-013-CV) containing 10% Fetal Bovine Serum (Perbio; cat. #: SH30070.03), Penicillin/Streptomycin (Mediatech, Cat #30-001-C1), L-Glutamine (Mediatech; cat. #: 25-005-CI) at 37° C. and 10% CO2. […] RNA was isolated using RNeasy RNA extraction kit (74106) from Qiagen. RNA concentrations were determined using NanoDrop Spectrophotometer ND 1000 ([…]).
RT reactions were conducted in a total volume of 20 μl using the High Capacity cDNA kit from AB (PN 4368814). The RT mixture was prepared to contain 2 μl 10× TaqMan RT buffer, 1.2 μl dNTP mix ([…]), 1.0 μl 10× Random Hexamer, 1 μl RNase Inhibitor, 1 μl MultiScribe Reverse Transcriptase ([…]), 100 ng of RNA, and RNase-free water to make up the final volume of 20 μl. The reaction was incubated at 25° C. for 10 min, 45° C. for 45 min, and then 95° C. for 5 min in a BIORAD MY CYCLER.
QPCR was carried out using Applied Biosystems Universal PCR Master Mix (PN 4369016). The mixture contained 10 μl of Taqman Universal PCR mix, 1 μl of primer and probe mix, 2 μl of RT product, and 7 μl of deionized water. All probes, Taqman assays were, were purchased from Applied Biosystems, Hs01118190 ml for PLOD-2, and human GAPDH (PN 4352934). The temperature profiles for qPCR were 50° C. for 2 min, and 95° C. for 10 min for 1 cycle, then at 95° C. for 15 sec, and 60° C. for 1 min for 40 cycles carried out in Stratagene Mx 3005P qPCR machine.
RNA isolated from cells were analyzed by qRT-PCR for expression levels of PLOD-2, using GAPDH as an internal control.

| Compound | induction of a significant level of PLOD-2 in skin cells | Significant Increases in PLOD-2 Expression (5 μM) | Significant Increases in PLOD-2 Expression (10 μM) | further results |
| --- | --- | --- | --- | --- |
| COc1ccc(Cc2nc(=O)c(CCC(=O)N3CCC(C)CC3)n[nH]2)cc1OC [ALB-H09784893] | significantly stimulate | – | – | – |
| N#Cc1cccc(CN2CCNC(=O)CC2c2nccs2)c1 (centres unmarked) [ALB-H16063163] | significantly stimulate | – | – | – |
| COC1=C(OC)C(=O)C(C/C=C(\C)CC/C=C(\C)CC/C=C(\C)CC/C=C(\C)CC/C=C(\C)CC/C=C(\C)CC/C=C(\C)CC/C=C(\C)CC/C=C(\C)CCC=C(C)C)=C(C)C1=O [Coenzyme Q10] | – | Yes (11%) | Yes (24%) | – |
| O=C(O)CO [Glycolic Acid (AHA), Glycolic Acid] | did not induce a significant level of PLOD-2 | – | – | Significant Increases in PLOD-2 Expression (0.05%): No; Significant Increases in PLOD-2 Expression (0.10%): No |
| NC(=O)c1cccnc1 [Niacinamide] | did not induce a significant level of PLOD-2 | – | – | Significant Increases in PLOD-2 Expression (0.05%): No; Significant Increases in PLOD-2 Expression (0.10%): No |
| Oc1ccc(C=Cc2cc(O)cc(O)c2)cc1 [Resveratrol] | did not induce a significant level of PLOD-2 | No | No | – |
| CC1=C(/C=C/C(C)=C/C=C/C(C)=C/CO)C(C)(C)CCC1 [Retinol] | did not induce a significant level of PLOD-2 | No | No | – |
| Hyaluronic Acid | did not induce a significant level of PLOD-2 | – | – | Significant Increases in PLOD-2 Expression (0.001%): No; Significant Increases in PLOD-2 Expression (0.005%): No |
| N-Acetyl-Tyrosinamide | significantly stimulate | – | – | – |
